From patent US20140120060A1, “TREATMENT OF RHEUMATOID ARTHRITIS AND ASTHMA USING PI3 KINASE INHIBITORS” (INFINITY PHARMACEUTICALS, INC., priority 2012, published 2014)

tested on: B cell; test: B cell proliferation; format: cell-based

SMILES | EC50 [µM]
Cc1ccccc1-n1c(Cn2nc(-c3ccc4sc(N)nc4c3)c3c(N)ncnc32)cc2cccc(C)c2c1=O [Compound 276] | < 0.1
CCc1ccccc1-n1c(Cn2nc(-c3cn[nH]c3)c3c(N)ncnc32)cc2cccc(C)c2c1=O [Compound 190] | < 0.1
Cc1ccccc1-n1c(Cn2nc(-c3cccc(O)c3)c3c(N)nccc32)cc2cccc(C)c2c1=O [Compound 119] | < 1
CCC(Nc1ncnc2[nH]cnc12)c1cc2cccc(C)c2c(=O)n1-c1ccccc1 (stereo not drawn) [Compound 211] | < 0.1
Cc1cccc2cc(Cn3nc(/C=C4/SC(=O)NC4=O)c4c(N)ncnc43)n(-c3ccccc3F)c(=O)c12 [Compound 171] | < 0.1
CC(=O)Nc1nc2cc(-c3nn(Cc4cc5cccc(C)c5c(=O)n4-c4ccccc4)c4ncnc(N)c34)ccc2o1 [Compound 253] | < 0.1
Cc1ccccc1-n1c(Cn2nc(C#C[C@H](C)O)c3c(N)ncnc32)cc2cccc(C)c2c1=O [Compound 85] | < 1
CC(=O)Nc1nc2ccc(-c3nn(Cc4cc5cccc(C)c5c(=O)n4C4CCC4)c4ncnc(N)c34)cc2s1 [Compound 159] | < 0.1
Cc1cccnc1-n1c(Cn2nc(-c3ccc(F)c(O)c3)c3c(N)ncnc32)cc2cccc(C)c2c1=O [Compound 68] | < 0.1
CC(=O)Nc1nc2ccc(-c3nn(Cc4cc5cccc(C)c5c(=O)n4C(C)C)c4ncnc(N)c34)cc2s1 [Compound 154] | < 0.1
Cc1cccc2cc(Cn3nc(C#C[C@@H](C)O)c4c(N)ncnc43)n(-c3ccccc3C(C)C)c(=O)c12 [Compound 83] | < 0.1
Cc1cccc2cc(Cn3nc(-c4cccc(O)c4)c4c(N)ncnc43)n(-c3ccccc3)c(=O)c12 [Compound 146] | < 0.1
Cc1cccc2cc([C@H](C)Nc3ncnc4[nH]nc(C#N)c34)n(-c3ccccc3)c(=O)c12 [Compound 255] | < 0.1
Cc1cccc2cc(Cn3nc(-c4cccc(O)c4)c4c(N)ncnc43)n(C(C)C)c(=O)c12 [Compound 62] | < 0.1
Cc1cccc2cc(C(C)Nc3ncnc4[nH]cnc34)n(-c3cccc(F)c3)c(=O)c12 (stereo not drawn) [Compound 229] | < 0.1
Cc1cccc2cc(Cn3nc(-c4ccc5nc(N)oc5c4)c4c(N)ncnc43)n(-c3ccccc3)c(=O)c12 [Compound 235] | < 10
COc1ccc(-c2nn(Cc3cc4cccc(C)c4c(=O)n3-c3ccccc3C)c3ncnc(N)c23)cc1 [Compound 45] | < 1
Cc1cccc2cc(Cn3nc(-c4ccc(Cl)c(O)c4)c4c(N)ncnc43)n(-c3ccccc3F)c(=O)c12 [Compound 24] | < 1
Cc1cccc2cc(Cn3nc(I)c4c(N)ncnc43)n(-c3ccccc3OCCN3CCOCC3)c(=O)c12 [Compound 103] | < 1
Cc1cccc2cc(Cn3nc(Br)c4c(N)ncnc43)n(-c3ccccc3F)c(=O)c12 [Compound 35] | < 1
Cc1cccc2cc([C@H](C)Nc3nc(N)ncc3Cl)n(-c3ccccc3)c(=O)c12 [Compound 249] | < 0.1
CCc1ccccc1-n1c(Cn2nc(I)c3c(N)ncnc32)cc2cccc(C)c2c1=O [Compound 77] | < 1
Cc1cccc2cc([C@H](C)Nc3ncnc4[nH]cc(Br)c34)n(-c3ccccc3)c(=O)c12 [Compound 257] | < 0.1
Cc1cccnc1-n1c(Cn2nc(Br)c3c(N)ncnc32)cc2cccc(C)c2c1=O [Compound 17] | < 0.1

SMILES | EC50 [µM]
Cc1cccc2cc(Cn3nc(-c4ccc(F)c(O)c4)c4c(N)ncnc43)n(-c3ccccc3F)c(=O)c12 [Compound 9] | < 1
CC(=O)Nc1nc2ccc(-c3nn(Cc4cc5cccc(C)c5c(=O)n4C4CC4)c4ncnc(N)c34)cc2s1 [Compound 155] | < 0.1
Cc1cccnc1-n1c(Cn2nc(-c3cc(O)cc(F)c3)c3c(N)ncnc32)cc2ccccc2c1=O [Compound 93] | < 0.1
Cc1cccc2cc(Cn3nc(I)c4c(N)ncnc43)n(C3CCCC3)c(=O)c12 [Compound 57] | < 10
CCC(Nc1ncnc2[nH]cnc12)c1cc2cccc(C)c2c(=O)n1C(C)C (stereo not drawn) [Compound 219] | < 0.1
Nc1ncnc2c1c(-c1cc(O)cc(F)c1)nn2Cc1cc2cccc(F)c2c(=O)n1-c1ccccc1F [Compound 144] | < 0.1
Cc1ccccc1-n1c(Cn2nc(-c3ccc4nc(N)sc4c3)c3c(N)ncnc32)cc2cccc(C)c2c1=O [Compound 145] | < 1
Cc1cccc2cc(Cn3nc(-c4cc(O)cc(F)c4)c4c(N)ncnc43)n(-c3ccccc3C(C)C)c(=O)c12 [Compound 95] | < 0.1
Cc1cccc2cc(C(C)Nc3ncnc4[nH]cnc34)n(-c3ccc(F)cc3)c(=O)c12 (stereo not drawn) [Compound 213] | < 0.1
Cc1cccc2cc(Cn3nc(Cl)c4c(N)ncnc43)n(-c3ccccc3F)c(=O)c12 [Compound 34] | < 1
Cc1cccc2cc([C@H](C)Nc3nc(Cl)nc4[nH]cnc34)n(-c3ccccc3)c(=O)c12 [Compound 244] | < 0.1
Cc1cccc2cc(Cn3nc(C(F)F)c4c(N)ncnc43)n(-c3ccccc3)c(=O)c12 [Compound 308] | < 0.1
Cc1cccc2cc(C(C)Nc3ncnc4[nH]cnc34)n(CCN3CCCC3)c(=O)c12 (stereo not drawn) [Compound 233] | < 0.1
C[C@H](Nc1ncnc2[nH]cnc12)c1cc2cccc(Cl)c2c(=O)n1C1CC1 [Compound 270] | < 0.1
Cc1ccccc1-n1c(Cn2nc(C#C[C@@H](C)O)c3c(N)ncnc32)cc2cccc(F)c2c1=O [Compound 43] | < 10
Cc1cccc2cc(Cn3nc(-c4ccc5oc(N)nc5c4)c4c(N)ncnc43)n(C3CCC3)c(=O)c12 [Compound 208] | < 0.1
CC(=O)Nc1nc2ccc(-c3nn(Cc4cc5cccc(C)c5c(=O)n4-c4ccccc4C)c4ncnc(N)c34)cc2s1 [Compound 53] | < 0.1
Cc1cccc2cc(Cn3nc(-c4cc(O)cc(F)c4)c4c(N)ncnc43)n(C3CC3)c(=O)c12 [Compound 101] | < 0.1
Cc1ccccc1-n1c(Cn2nc(-c3ccc(O)cc3)c3c(N)ncnc32)cc2cccc(C)c2c1=O [Compound 36] | < 1
Cc1cccc2cc(Cn3nc(-c4cc(O)cc(F)c4)c4c(N)ncnc43)n(C)c(=O)c12 [Compound 125] | < 0.1
Cc1ccccc1-n1c(Cn2nc(C#C[C@@H](C)O)c3c(N)ncnc32)cc2ccccc2c1=O [Compound 32] | < 1
Cc1cccc2cc(Cn3nc(-c4cccc(O)c4)c4c(N)ncnc43)n(C)c(=O)c12 [Compound 124] | < 1
Cc1cccc2cc(Cn3nc(I)c4c(N)ncnc43)n(C)c(=O)c12 [Compound 107] | < 1
Cc1ccccc1-n1c(Cn2nc(C(=O)NO)c3c(N)ncnc32)cc2cccc(C)c2c1=O [Compound 300] | < 0.1

SMILES | EC50 [µM]
Cc1cccc2cc(Cn3nc(-c4ccc(O)cc4)c4c(N)ncnc43)n(-c3ccccc3F)c(=O)c12 [Compound 46] | < 1
CC(C)n1c(Cn2nc(-c3cccc(O)c3)c3c(N)ncnc32)cc2cccc(F)c2c1=O [Compound 133] | < 1
Cc1ccccc1-n1c(Cn2nc(-c3cn[nH]c3)c3c(N)ncnc32)cc2cccc(C)c2c1=O [Compound 160] | < 0.1
Cc1ccccc1-n1c(Cn2nc(-c3ccc(F)cc3)c3c(N)ncnc32)cc2cccc(C)c2c1=O [Compound 27] | < 10
Cc1cccc2cc(Cn3nc(-c4ccc5sc(N)nc5c4)c4c(N)ncnc43)n(-c3ccccc3)c(=O)c12 [Compound 277] | < 0.1
CC(=O)Nc1nc2ccc(-c3nn(Cc4cc5cccc(C)c5c(=O)n4-c4ccccc4)c4ncnc(N)c34)cc2s1 [Compound 177] | < 0.1
Cc1cccc2cc(Cn3nc(C#C[C@@H](C)O)c4c(N)ncnc43)n(C3CCCCC3)c(=O)c12 [Compound 112] | < 10
CCC(Nc1ncnc2[nH]cnc12)c1cc2cccc(C)c2c(=O)n1-c1cc(F)cc(F)c1 (stereo not drawn) [Compound 224] | < 0.1
Cc1cccc2cc(Cn3nc(-c4cc(O)cc(F)c4)c4c(N)ncnc43)n(-c3ccccc3)c(=O)c12 [Compound 147] | < 0.1
Nc1ncnc2c1c(I)nn2Cc1cc2cccc(Cl)c2c(=O)n1C1CC1 [Compound 139] | < 0.1
Cc1ccccc1-n1c(Cn2nc(-c3cccc(O)c3)c3c(N)ncnc32)cc2ccccc2c1=O [Compound 51] | < 1
Cc1cccc2cc(C(C)Nc3ncnc4[nH]cnc34)n(C(C)C)c(=O)c12 (stereo not drawn) [Compound 209] | < 0.1
Cc1cccc2cc(Cn3nc(-c4cccc(O)c4)c4c(N)ncnc43)n(-c3ccccc3F)c(=O)c12 [Compound 10] | < 1
Cc1ccccc1-n1c(Cn2nc(-c3ccc4oc(N)nc4c3)c3c(N)ncnc32)cc2cccc(C)c2c1=O [Compound 151] | < 0.1
Cc1cccc2cc(Cn3nc(C#C[C@@H](C)O)c4c(N)ncnc43)n(-c3ccccc3Cl)c(=O)c12 [Compound 98] | < 1
CC(=O)Nc1nc2ccc(-c3nn(Cc4cc5cccc(Cl)c5c(=O)n4C(C)C)c4ncnc(N)c34)cc2s1 [Compound 157] | < 0.1
Cc1cccc2cc(Cn3nc(I)c4c(N)ncnc43)n(-c3ccccc3Cl)c(=O)c12 [Compound 76] | < 1
Cc1ccccc1-n1c(Cn2nc(-c3ccc(Cl)c(O)c3)c3c(N)ncnc32)cc2cccc(C)c2c1=O [Compound 23] | < 0.1
Cc1cccc2cc(C(C)Nc3ncnc4[nH]cnc34)n(C3CCN(C)CC3)c(=O)c12 (stereo not drawn) [Compound 227] | < 0.1
CC(=O)Nc1nc2ccc(-c3nn(Cc4cc5cccc(C)c5c(=O)n4-c4ccccc4C)c4ncnc(N)c34)cc2[nH]1 [Compound 296] | < 0.1
CCC(Nc1ncnc2[nH]cnc12)c1cc2ccccc2c(=O)n1-c1ccccc1 (stereo not drawn) [Compound 221] | < 0.1
COc1cccc(-c2nn(Cc3cc4cccc(C)c4c(=O)n3-c3ccccc3C)c3ncnc(N)c23)c1 [Compound 106] | < 1
COc1ccccc1-n1c(Cn2nc(-c3cc(O)cc(F)c3)c3c(N)ncnc32)cc2cccc(C)c2c1=O [Compound 84] | < 0.1
Cc1cccc2cc(Cn3nc(C#CC4CC4)c4c(N)ncnc43)n(-c3ccccc3F)c(=O)c12 [Compound 4] | < 1
